Measurements: patent US8071540B2, “Virus derived antimicrobial peptides” (priority 2007, dated 2011)
“Also recorded” adds a separate entry of the source. Where no end group is shown, it is not given here.

Experiments:
Burkholderia cepacia = format: cell-based; conditions: standard broth dilution, FIG. 7
Staphylococcus aureus [1] = experiment: Bacterial lysis (broth dilution) assay, MBC; format: cell-based; conditions: for MBC, Staphylococcus aureus, 0 mM NaCl: 0 mM NaCl (10 mM phosphate buffer); for MBC, Staphylococcus aureus, 0 mM NaCl / MBC, Staphylococcus aureus, 150 mM NaCl: 99.9% killing; for MBC, Staphylococcus aureus, 150 mM NaCl: 150 mM NaCl (physiologic)
Excerpt: The assays for growth inhibition of a microbial target can be used to derive a minimum bactericidal concentration (MBC) value for the peptide, i.e., the concentration of peptide required to kill 99.9% (3-log decrease) of the microbial sample being tested. This value is well known to those in the art as representative of the effectiveness of a particular antimicrobial agent (e.g., an antibiotic) against a particular organism or group of organisms. In assays to detect the MBC of a peptide, growth inhibition of a bacterial population also can be measured with reference to the number of colony forming units (cfu) after exposure to a peptide relative to a control experiment without a peptide.
Bacterial lysis assay. Bacterial lysis assays were conducted in a manner similar to that described previously (Lehrer, R. I., M. E. Selsted, D. Szklarek, and F. J. 1983. Infect. Immun. 42: 10-4, 1983; Miller, M. A., R. F. Garry, J. M. Jaynes, and R. C. Montelaro, AIDS Res Hum Retroviruses 7:511-519, 1991). Bacterial suspensions were cultured in Luria-Bertani Broth to mid-log growth phase and washed by two cycles of centrifugation and suspension in 10 mM phosphate buffer. The Abs600 of the suspension was adjusted with 10 mM phosphate buffer such that, upon dilution, 5-10×10^5 cfu/mL would be treated in the assay. Bacteria were incubated for 1 h with two-fold dilutions of peptides (100 μM to 100 nM) in 96-well plates using 10 mM phosphate buffer, pH 7.2, as a diluent. Ten-fold dilutions of bacteria were performed to 1:1 000; a 100 μl aliquot from each condition was spread on the surface of tryptic soy agar plates (Difco, Detroit, Mich.) which were incubated overnight. Colonies of surviving bacteria (cfu, colony-forming units) were counted and compared to untreated controls to determine the amount of peptide-induced killing under each condition. Log killing is defined as the log of the ratio of cfu present before and after treatment with peptide. The minimal bactericidal concentration, MBC, is the peptide concentration at which 99.9% (three log) killing is achieved (Pearson et al., Antimicrob. Agents Chemother. 18: 699-708, 1980).
Results. Representative gram positive (S. aureus) and gram negative (P. aeruginosa) clinical isolates were used as the index bacteria to survey the peptides described herein.
A limitation of many host-derived antimicrobial peptides is their decreased activity at physiologic (150 mM) NaCl concentration. See Friedrich et al., Antimicrobial Agents and Chemotherapy 43:1542-1548. The peptides WLSA-5 (SEQ ID NO: 3) and LL37 were tested against the two index strains at physiologic NaCl. […] The activity of antimicrobial peptides described herein were compared to an expanded list of clinical bacterial isolates. These are summarized in Table 2 by comparing their MBCs in phosphate buffer alone (low salt) and phosphate buffer containing 150 mM NaCl (physiologic conditions). Inspection of this table would lead one skilled in the art to conclude that the activity of antimicrobial peptides described herein compare favorably to the host derived antimicrobial peptides as it relates to the spectrum and potency of antimicrobial activity.

[2] = tested on: Methicillin Resistant S. aureus; format: cell-based, Staphylococcus aureus; parameters: unit not given here; conditions: 99.9% killing; for MBC, Methicillin Resistant S. aureus, 0 mM NaCl: 0 mM NaCl (10 mM phosphate buffer); for MBC, Methicillin Resistant S. aureus, 150 mM NaCl: 150 mM NaCl (physiologic)
[3] = tested on: differentiated primary human airway epithelial cells; experiment: CF cell culture model: transepithelial resistance as peptide toxicity
Pseudomonas aeruginosa [4] = experiment: Bacterial lysis (broth dilution) assay, MBC; format: cell-based; parameters: MBC, Psuedomonas aeruginosa, 0 mM NaCl / MBC, Psuedomonas aeruginosa, 150 mM NaCl: unit not given here; conditions: for MBC, Psuedomonas aeruginosa, 0 mM NaCl: 0 mM NaCl (10 mM phosphate buffer); for MBC, Psuedomonas aeruginosa, 0 mM NaCl / MBC, Psuedomonas aeruginosa, 150 mM NaCl: 99.9% killing; for MBC, Psuedomonas aeruginosa, 150 mM NaCl: 150 mM NaCl (physiologic); for P. aeruginosa killing, influence of physiologic NaCl: phosphate buffer with 150 mM NaCl versus low salt
[5] = tested on: P. aeruginosa attached to differentiated human bronchial epithelial cells; experiment: CF cell culture model: killing of bacteria bound to airway epithelial cells; format: cell-based, Pseudomonas aeruginosa; conditions: increasing peptide concentration, co-culture, FIG. 9
Staphylococcus aureus [6] = conditions: 1×10^5 colony-forming units; cited from earlier work
[7] = tested on: diverse gram-negative and -positive bacterial isolates; conditions: cited from earlier work
Pseudomonas aeruginosa [8] = conditions: 1×10^5 colony-forming units; cited from earlier work
[9] = molecular target: Ca^2+ saturated calmodulin (Homo sapiens, UniProt P0DP23); conditions: host cell Ca^2+ saturated calmodulin; cited from earlier work
S. aureus [10] = experiment: Rabbit joint model of septic arthritis
[11] = tested on: HIV-1 (strain IIIB) virions; experiment: Suppression of HIV-1 infectivity, p24 antigen in PHA stimulated PBMCs; format: cell-based; conditions: 1 and 0.1 μM
Protocol: In this example human peripheral blood […] (PBMCs) were obtained from healthy volunteers and maintained in culture at a concentration of 1×10^5 viable cells per mL of medium. These cells were stimulated by the addition of phytohemagglutinin (PHA). To this a standardized titer of purified HIV-1 (strain IIIB) virions was added to PBMCs to generate a p24 antigen signal of 14,000 pg/mL five days post exposure to virus.
In order to test whether the LLP peptide, LSA-5 (SEQ ID NO: 2) was able to suppress HIV-1 activity, LSA-5 at concentrations ranging between 0.1 and 100 μM were incubated with the standard virus titer determined as above for 30 min. Virions surviving peptide exposure were isolated by ultracentrifugation at 100,000×g for 60 min. Viral pellets were used to infect PHA stimulated PBMCs prepared as described above. Five days post infection the level of p24 antigen was determined and compared to a non-peptide treated control. The data was expressed as the ratio of p24 antigen associated with peptide-treated vs. non-peptide treated HIV-1 infected cells to obtain a value referred to as percent suppression.

P. aeruginosa = experiment: LSA-5 bound to Affigel 15 column, viable bacteria in eluant; conditions: same column repeatedly exposed to bacterial suspensions
S. epidermidis = experiment: In vitro activity against S. epidermidis
S. aureus [12] = experiment: Bactericidal activity in human synovial fluid

Substance	MBC, Staphylococcus aureus, 0 mM NaCl (Staphylococcus aureus [1])	MBC, Staphylococcus aureus, 150 mM NaCl (Staphylococcus aureus [1])	MBC, Methicillin Resistant S. aureus, 0 mM NaCl [2]	MBC, Psuedomonas aeruginosa, 0 mM NaCl (Pseudomonas aeruginosa [4])	MBC, Psuedomonas aeruginosa, 150 mM NaCl (Pseudomonas aeruginosa [4])	MBC, Methicillin Resistant S. aureus, 150 mM NaCl [2]	also measured
RWIRVVQRWCRAIRHIWRRIRQGLRRWLRVV [WLSA-5, RWIRVVQRWCRAIRHIWRRIRQGLRRWLRVV]	1000 nM	1000 nM	150	1000	1000	–	activity against B. cepacia clinical isolate (Burkholderia cepacia): significantly more active than LSA-5; S. aureus killing, influence of physiologic NaCl (Staphylococcus aureus [1]; phosphate buffer with 150 mM NaCl versus low salt): not influenced by NaCl in the same way as LL37; also recorded: maintained its activity in low and physiologic salt conditions; change in transepithelial resistance ([3]; at a decrease in bacterial counts by two orders of magnitude): less than 50%; effect on trans-epithelial resistance ([3]; compared with LL-37): transient and not significantly different from LL-37; P. aeruginosa killing, influence of physiologic NaCl (Pseudomonas aeruginosa [4]): not affected by NaCl inclusion; also recorded: maintained its activity in low and physiologic salt conditions; viability of bacteria bound to epithelial cells [5]: decrease in bacterial viability
LLP1: prototypical lentiviral lytic peptide, amino acids 828-856 of the HIV-1 viral isolate HXB2R Env (SEQ ID NO: 19) (RVIEVVQGACRAIRHIPRRIRQGLERIL; Human immunodeficiency virus type 1) [reference compound]	8000 nM	16000 nM	16000	1000	1000	–	time to nearly sterilize suspension, S. aureus (Staphylococcus aureus [6]): ≤ 60 s; antibacterial activity compared with magainin-2 [7]: equal to, or more potent than magainin-2; time to nearly sterilize suspension, P. aeruginosa (Pseudomonas aeruginosa [8]): ≤ 60 s; binding affinity to calmodulin [9]: near nanomolar affinity
VRRVVRRVVRVVRRVVRRVRRVVRRVVRVV RRVVRR (VRRVVRRVVRVVRRVVRRVRRVVRRVVRVVRRVVRR; Antimicrobial peptide) [LBU-3]	1500 nM	1500 nM	–	1500	800	–	–
RRVVRRVRRVVRRVVRVVRRVVRRVRRVVRRVVRVVRRVVRR (RRVVRRVRRVVRRVVRVVRRVVRRVRRVVRRVVRVVRRVVRR; Antimicrobial peptide) [LBU-3.5]	1000 nM	600 nM	1500	400	400	200	–
RVIRVVQRACRAIRHIVRRIRQGLRRILRVV [LSA-5, RVIRVVQRACRAIRHIVRRIRQGLRRILRVV]	1000 nM	1000 nM	150	800	800	–	bacteria (colony forming units) in joint fluid (S. aureus [10]; 50, 100 and 200 μM intraarticularly, 1 h after instillation, versus non-peptide treated joint, FIG. 11): dose-dependent decrease in colony forming units; also recorded: significantly increases bacterial killing; bacterial load in joint, comparison with 0.35% neomycin (S. aureus [10]; intraarticular at 0, 1 and 2 h, FIG. 12): nearly as effective as a standard concentration of neomycin; adverse toxicity in animal experiments (S. aureus [10]; peptide administered alone, intraarticular): no adverse toxicity was observed; bacterial load in joint (S. aureus [10]; two treatments of 150 μM at 0 and 1 h, 1 h post-treatment, versus phosphate buffer): significant decrease; reduction of HIV-1 infectivity [11]: drop off this inhibitory activity; passages of bacterial suspension over which the column maintained activity (P. aeruginosa): up to 6 passages; activity against S. epidermidis in vitro (S. epidermidis): highly active; concentration at which peptide is still active in synovial fluid (S. aureus [12]; 1:4 dilution of human synovial fluid, FIG. 10): 128 µM; effect of synovial fluid on activity (S. aureus [12]; versus phosphate buffer containing physiologic NaCl): clearly impairs the activity
VRRVWRRVVRVVRRWVRRVRRVWRRVVRVV RRWVRR (VRRVWRRVVRVVRRWVRRVRRVWRRVVRVVRRWVRR; Antimicrobial peptide) [WLBU-3]	3,000 nM	600 nM	400	1500	800	100	–
RVVRVVRRVVRRVRRVVRRVVRVVRRVVRRVRRVVRRVVRVVRRVVRR [LBU-4]	800 nM	800 nM	–	800	400	–	–
RVVRV VRRWV RR (RVVRVVRRWVRR; Antimicrobial peptide) [WLBU-1]	30,000 nM	10,000 nM	50,000	400	2500	50,000	–
RVIRVVQRACRAIRHIVRRIRQGLRRIL (RVIRVVQRACRAIRHIVRRIRQGLRRIL; Antimicrobial peptide) [SA-5]	1000 nM	–	–	1000	1000	–	–
RRVVRRVRRVVRRVVRVVRRVVRR [LBU-2]	1500 nM	–	–	1500	800	–	–
RVVRVVRRWVRRVRRVWRRVVRVVRRWVRRVRRVWRRVVRVVRRWRVV (RVVRVVRRWVRRVRRVWRRVVRVVRRWVRRVRRVWRRVVRVVRRWRVV; Antimicrobial peptide) [WLBU-4]	3,000 nM	600 nM	1500	1500	400	200	–
LL37: human cathelicidin, 37-amino acid amphiphilic a-helical cationic host derived antimicrobial peptide (LLGDFFRKSKEKIGKEFKRIVQRIKDFLRNLVPRTES; Antibacterial peptide LL-37; UniProt P49913 134-170, looked up) [reference compound]	–	–	–	–	–	–	P. aeruginosa killing, influence of physiologic NaCl (Pseudomonas aeruginosa [4]): not affected by NaCl inclusion
